Activity calls are given as the source filed them. The calls are words filed in the database; no cut-off is given here.
Experiments:
Escherichia coli = assay: Antimicrobial activity against Escherichia coli ATCC 25922 assessed as microbial growth inhibition at 1 mg/ml incubated overnight at 37 degC; assay type: functional; details: for zone of inhibition at 1000 µg/mL: read-out: IZ
Staphylococcus aureus [1] = assay: Antimicrobial activity against methicillin-resistant Staphylococcus aureus 344/2-32 assessed as microbial growth inhibition at 1 mg/ml incubated overnight at 37 degC; assay type: functional; details: for zone of inhibition at 1000 µg/mL: read-out: IZ
Streptococcus pyogenes = assay: Antimicrobial activity against Streptococcus pyogenes 345/1 assessed as microbial growth inhibition at 1 mg/ml incubated overnight at 37 degC; assay type: functional; details: for zone of inhibition at 1000 µg/mL: read-out: IZ
Candida albicans = assay: Antimicrobial activity against Candida albicans ATCC 10231 assessed as microbial growth inhibition at 1 mg/ml incubated overnight at 37 degC; assay type: functional, organism-based
Pseudomonas aeruginosa = assay: Antimicrobial activity against Pseudomonas aeruginosa ATCC 27853 assessed as microbial growth inhibition at 1 mg/ml incubated overnight at 37 degC; assay type: functional; details: for zone of inhibition at 1000 µg/mL: read-out: IZ
Staphylococcus aureus [2] = assay: Antimicrobial activity against Staphylococcus aureus ATCC 25923 assessed as microbial growth inhibition at 1 mg/ml incubated overnight at 37 degC; assay type: functional; details: for zone of inhibition at 1000 µg/mL: read-out: IZ

SMILES | zone of inhibition at 1000 µg/mL (Escherichia coli) | inhibition zone (IZ) (Staphylococcus aureus [1]) | zone of inhibition at 1000 µg/mL (Streptococcus pyogenes) | inhibition zone (IZ) (Candida albicans) | zone of inhibition at 1000 µg/mL (Pseudomonas aeruginosa) | inhibition zone (IZ) (Staphylococcus aureus [2]) | inhibition zone (IZ) (Escherichia coli) | zone of inhibition at 1000 µg/mL (Staphylococcus aureus [2]) | zone of inhibition at 1000 µg/mL (Staphylococcus aureus [1]) | inhibition zone (IZ) (Streptococcus pyogenes) | inhibition zone (IZ) (Pseudomonas aeruginosa)
COC1=Cc2ccc(OC)c3ccc(-c4ccccc4)c(c23)C1=O | 1 mm | inactive | 1 mm | inactive | 3 mm | inactive |  |  |  |  | 
COC(=O)Nc1nc2ccccc2[nH]1 |  |  |  | inactive |  |  |  |  |  |  | 
COc1cc2cc(OC)c3oc4ccccc4c4ccc(c1=O)c2c34 |  | inactive | 2 mm | inactive | 4 mm | inactive | inactive |  |  |  | 
COC1=Cc2cc(O)c(OC)c3ccc(-c4ccccc4)c(c23)C1=O | 1 mm | inactive | 1 mm | inactive | 1 mm |  |  | 1 mm |  |  | 
COc1cc(OC)c2ccc(-c3ccccc3)c3c2c1C=C(O)C3=O | 1 mm |  | 1 mm | inactive | 5 mm |  |  | 1 mm | 1 mm |  | 
COc1cc2cc(O)c3oc4ccccc4c4ccc(c1=O)c2c34 | 1 mm | inactive | 2 mm | inactive | 5 mm | inactive |  |  |  |  | 
CC1(C)S[C@@H]2[C@H](NC(=O)[C@H](N)c3ccccc3)C(=O)N2[C@H]1C(=O)O [AMPICILLIN] |  |  | 20 mm |  | 2 mm |  | inactive | 15 mm | 3 mm |  | 
COC1=Cc2cc(=O)oc3ccc(-c4ccccc4)c(c23)C1=O | 1 mm | inactive |  | inactive |  | inactive |  |  |  | inactive | inactive
COc1cc2ccc(=O)c3ccc4c5ccccc5oc1c4c23 |  |  | 3 mm | inactive | 3 mm |  | inactive | 1 mm | 1 mm |  | 
O=c1ccc2cc(O)c3oc4ccccc4c4ccc1c2c34 |  | inactive | 1 mm | inactive | 3 mm | inactive | inactive |  |  |  | 
COC1=Cc2cc(OC)c(OC)c3ccc(-c4ccccc4)c(c23)C1=O | 1 mm |  | 1 mm | inactive | 1 mm | inactive |  |  | 1 mm |  | 
COC1OC(=O)c2ccc(-c3ccccc3)c3c(O)c(O)cc1c23 (stereo unspecified) | 1 mm | inactive | 1 mm | inactive | 1 mm | inactive |  |  |  |  | 
